In experiment [1] the target is Lysine-specific demethylase 4A (Homo sapiens, UniProt O75164). Kind of experiment: inhibition of JMJD2A H3K9me3 demethylation – biochemical, DELFIA europium, cherry-picked samples, selectivity assay for GASC-1 inhibitor project, dose response (AID 488840).
Experiment [2] concerns the target Ras and Rab interactor 1/Tyrosine-protein kinase ABL1 (Homo sapiens, UniProt P00519+Q13671). The class given is functional.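 Further: biochemical TR-FRET dose-response test measuring inhibition of binding between Rin1 and Abl proteins.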
The target of experiment [3] is T1, Mu-type opioid receptor (Homo sapiens, UniProt P35372). Kind of experiment: mu opioid receptor blockers – image-based, SAR follow-up (AID 2420).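 Further: compounds added before stimulation of receptor with agonist DAMGO.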 The class given is functional.
The nature of experiment [4]: Luminescence Cell-Based Dose Confirmation HTS to Identify Activators of 5'UTR Stem-Loop Driven Alpha-Synuclein mRNA Translation in H4 Neuroglioblastoma Cells. [Related pubchem assays: 1829 (Project Summary), 1814 (Primary HTS)]. Format: functional.
Experiment [5] has as its target T2, Kappa-type opioid receptor (Homo sapiens, UniProt P41145). The class given is functional.
In experiment [6] the target is T3, Delta-type opioid receptor (Homo sapiens, UniProt P41143). Kind of experiment: delta opioid receptor blockers – image-based, SAR follow-up (AID 2357). Format: functional.
Experiment [7] deals with T2, Kappa-type opioid receptor. In words: kappa opioid receptor blockers, image-based, SAR follow-up (AID 2348). Format: functional.
In experiment [8] the target is T1, Mu-type opioid receptor. Kind of experiment: mu opioid receptor activators, image-based, SAR follow-up (AID 2352). Format: functional.
Experiment [9] addresses T2, Kappa-type opioid receptor. In words: kappa opioid receptor activation potency – imaging, image-based, SAR follow-up (AID 2359). The class given is functional.
Experiment [10] has as its target T2, Kappa-type opioid receptor. Kind of experiment: kappa opioid receptor blockers, cell-based, luminescence, beta-arrestin, SAR follow-up (AID 2285). The class given is functional.
Another experiment concerns the target Beta-galactosidase (Escherichia coli, UniProt Q8VNN2). The class given is functional.
Experiment [11] deals with T2, Kappa-type opioid receptor. Format: functional. The source holds these as a separate data set.
Experiment [12] can be described thus: Luminescence Cell-Based Dose Response HTS to Identify Activators of Luciferase Translation or Activity in H4 […] Cells. [Related pubchem assays: 1829 (Project Summary), 1814 (Primary HTS)]. The class given is functional.
The target of experiment [13] is T3, Delta-type opioid receptor. In words: DOR agonists, SAR follow-up, image-based (AID 2370). Format: functional.
A further experiment relates to H4. In words: Luminescence Cell-Based Dose Response HTS to Identify Activators of 5'UTR Stem-Loop Driven Prion Protein mRNA Translation in H4 Neuroglioblastoma Cells. [Related pubchem assays: 1829 (Project Summary), 1814 (Primary HTS)]. Format: functional. As to conditions: Homo sapiens.

Active and inactive are the calls of the source. Some results are limits rather than exact numbers.

Data on two compounds can be found in ChEMBL document CHEMBL1201862, “PubChem BioAssay data set” (2004).

For orientation: AC50 means the concentration giving half of the maximal activity seen. One may read the IC50 as the concentration that gives 50% inhibition. The term EC50 denotes the concentration giving half of the maximal effect.

T2 sequence (P41145 whole entry): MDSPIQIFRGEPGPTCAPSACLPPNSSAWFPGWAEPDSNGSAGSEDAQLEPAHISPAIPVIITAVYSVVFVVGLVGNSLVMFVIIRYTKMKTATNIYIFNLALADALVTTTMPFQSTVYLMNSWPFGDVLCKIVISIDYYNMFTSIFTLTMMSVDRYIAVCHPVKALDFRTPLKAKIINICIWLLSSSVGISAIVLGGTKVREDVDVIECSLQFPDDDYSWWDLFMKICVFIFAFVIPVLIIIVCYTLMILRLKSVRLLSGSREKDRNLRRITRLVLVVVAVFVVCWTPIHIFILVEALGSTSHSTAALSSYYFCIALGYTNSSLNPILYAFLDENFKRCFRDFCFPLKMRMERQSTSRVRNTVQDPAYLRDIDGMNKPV
T3 sequence (P41143 whole entry): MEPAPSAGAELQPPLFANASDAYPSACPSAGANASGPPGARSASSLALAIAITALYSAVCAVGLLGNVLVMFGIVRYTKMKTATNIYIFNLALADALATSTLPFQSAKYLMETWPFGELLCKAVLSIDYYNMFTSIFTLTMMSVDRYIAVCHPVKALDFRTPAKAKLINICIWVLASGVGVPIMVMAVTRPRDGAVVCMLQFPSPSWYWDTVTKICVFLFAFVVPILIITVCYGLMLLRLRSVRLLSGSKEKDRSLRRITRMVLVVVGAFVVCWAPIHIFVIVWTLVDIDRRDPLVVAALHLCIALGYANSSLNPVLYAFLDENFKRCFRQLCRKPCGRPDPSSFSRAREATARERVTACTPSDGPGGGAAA
T1 sequence (P35372 whole entry): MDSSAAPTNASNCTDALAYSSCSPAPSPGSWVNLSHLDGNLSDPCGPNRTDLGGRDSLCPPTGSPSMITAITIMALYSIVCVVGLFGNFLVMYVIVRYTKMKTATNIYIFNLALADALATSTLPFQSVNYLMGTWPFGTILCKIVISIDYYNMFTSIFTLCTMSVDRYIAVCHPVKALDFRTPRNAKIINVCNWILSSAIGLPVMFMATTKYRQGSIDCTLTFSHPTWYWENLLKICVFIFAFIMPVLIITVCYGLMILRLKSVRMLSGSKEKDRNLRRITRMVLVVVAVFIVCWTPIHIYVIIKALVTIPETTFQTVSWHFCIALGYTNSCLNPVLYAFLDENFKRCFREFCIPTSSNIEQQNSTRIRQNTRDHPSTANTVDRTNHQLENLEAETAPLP
Lysine-specific demethylase 4A, sequence (O75164 whole entry): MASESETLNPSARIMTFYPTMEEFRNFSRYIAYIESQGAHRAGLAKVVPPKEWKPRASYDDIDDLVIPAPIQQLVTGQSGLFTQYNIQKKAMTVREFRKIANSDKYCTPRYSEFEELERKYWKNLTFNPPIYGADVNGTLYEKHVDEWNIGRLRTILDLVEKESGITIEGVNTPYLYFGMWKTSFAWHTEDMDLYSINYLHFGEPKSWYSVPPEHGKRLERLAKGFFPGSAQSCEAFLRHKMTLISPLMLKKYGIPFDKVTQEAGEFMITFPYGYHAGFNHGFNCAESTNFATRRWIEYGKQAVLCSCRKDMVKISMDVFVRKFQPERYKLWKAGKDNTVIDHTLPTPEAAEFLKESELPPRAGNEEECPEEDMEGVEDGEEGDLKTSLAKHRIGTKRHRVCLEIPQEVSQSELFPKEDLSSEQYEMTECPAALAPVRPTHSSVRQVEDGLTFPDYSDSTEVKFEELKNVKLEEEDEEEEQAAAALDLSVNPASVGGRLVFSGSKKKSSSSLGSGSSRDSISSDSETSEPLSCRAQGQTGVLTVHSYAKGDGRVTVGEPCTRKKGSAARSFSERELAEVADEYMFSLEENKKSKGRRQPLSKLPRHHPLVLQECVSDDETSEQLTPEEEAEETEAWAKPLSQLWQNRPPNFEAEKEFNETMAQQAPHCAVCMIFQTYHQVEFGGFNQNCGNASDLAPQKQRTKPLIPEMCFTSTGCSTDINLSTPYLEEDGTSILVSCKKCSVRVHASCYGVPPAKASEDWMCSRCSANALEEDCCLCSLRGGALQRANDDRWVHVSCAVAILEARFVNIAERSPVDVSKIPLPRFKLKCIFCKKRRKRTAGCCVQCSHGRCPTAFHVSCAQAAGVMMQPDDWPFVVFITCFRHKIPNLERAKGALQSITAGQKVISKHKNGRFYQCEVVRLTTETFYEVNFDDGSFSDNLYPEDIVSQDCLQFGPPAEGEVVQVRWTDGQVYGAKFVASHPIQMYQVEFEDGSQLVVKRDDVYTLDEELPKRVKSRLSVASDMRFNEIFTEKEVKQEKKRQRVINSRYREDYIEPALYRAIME
Beta-galactosidase, sequence (Q8VNN2 whole entry): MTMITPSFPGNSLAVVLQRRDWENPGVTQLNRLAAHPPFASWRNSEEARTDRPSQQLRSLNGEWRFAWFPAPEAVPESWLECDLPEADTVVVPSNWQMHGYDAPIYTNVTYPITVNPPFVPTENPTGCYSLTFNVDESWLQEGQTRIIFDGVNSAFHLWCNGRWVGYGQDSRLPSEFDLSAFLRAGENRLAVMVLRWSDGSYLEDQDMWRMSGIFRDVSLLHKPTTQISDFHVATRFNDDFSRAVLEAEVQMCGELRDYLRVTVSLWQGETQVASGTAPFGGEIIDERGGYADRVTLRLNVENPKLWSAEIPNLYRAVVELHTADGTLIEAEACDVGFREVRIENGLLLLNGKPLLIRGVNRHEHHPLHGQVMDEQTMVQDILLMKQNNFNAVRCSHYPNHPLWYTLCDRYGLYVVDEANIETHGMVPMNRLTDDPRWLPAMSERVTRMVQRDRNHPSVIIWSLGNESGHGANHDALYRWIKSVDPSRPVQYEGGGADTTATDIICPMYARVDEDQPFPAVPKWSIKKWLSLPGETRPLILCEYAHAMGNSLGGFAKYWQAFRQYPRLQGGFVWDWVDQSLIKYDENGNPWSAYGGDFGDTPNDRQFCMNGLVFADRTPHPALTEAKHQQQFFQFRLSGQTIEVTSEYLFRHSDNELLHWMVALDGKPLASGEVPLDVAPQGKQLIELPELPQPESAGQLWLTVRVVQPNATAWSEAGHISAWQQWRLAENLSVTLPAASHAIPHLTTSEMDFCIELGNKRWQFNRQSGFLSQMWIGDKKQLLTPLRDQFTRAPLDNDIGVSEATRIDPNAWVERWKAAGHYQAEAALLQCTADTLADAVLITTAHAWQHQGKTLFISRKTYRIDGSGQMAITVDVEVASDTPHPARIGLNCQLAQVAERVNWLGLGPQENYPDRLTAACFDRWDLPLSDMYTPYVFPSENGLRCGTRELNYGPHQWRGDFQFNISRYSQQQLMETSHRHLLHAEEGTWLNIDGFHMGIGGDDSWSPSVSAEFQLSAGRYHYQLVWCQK

As for `CN(C(=O)c1ccc(NC(=O)Cc2ccc(NC(=O)C3CCN(C(=O)C4CC4)CC3)cc2)cc1)C1CC1`, the AC50 in experiment [1] was 17.8 µM (active). Further, the IC50 in experiment [2] was 9.39 µM (active).
On to `Cc1ccc(CN2C3CCCC2CC(NC(=O)c2ccc(C)cc2)C3)cc1` (stereo not given), for which the IC50 at Mu-type opioid receptor [3] is > 32 µM (inactive); in [5], 0.824 µM; in experiment [6], > 32 µM (inactive); in [7] it was > 32 µM (inactive); in [10], 3.28 µM (active); in experiment [11], 2.62 µM (active). For the same compound, the EC50 in experiment [4] is > 120 µM (not active); on Mu-type opioid receptor [8], > 32 µM (inactive); in experiment [9], > 32 µM (inactive); at Beta-galactosidase it was > 31.5 µM (inactive); in experiment [12], > 120 µM (not active); in experiment [13], > 32 µM (inactive). Besides, the concentration for a half-maximal effect (EC50) with H4 is given as > 120 µM (not active).
